Source: patent US9872847B2 (priority 2013, dated 2018)

Legend:
[1] = system: Harmaline-induced tremor; experiment: animal or person; type: in vivo, male Sprague-Dawley rats; conditions: po; for inhibition in vivo at 100 mg/kg / inhibition in vivo at 130 mg/kg / ED50: Rattus norvegicus; for inhibition in vivo at 100 mg/kg / inhibition in vivo at 130 mg/kg: 0.5 h, read-out: Protection % (percentage of activity compared to the vehicle only); for On-set time Mean ± S.E.M. / On-set time Median / Tremor score Mean ± S.E.M. / Tremor score Median: rat, in vivo
[2] = system: motor abilities on the Rotarod; experiment: Neurotoxicity (Rotarod); type: in vivo; conditions: protective index, mice
Experimental: The measurement of neurotoxicity of the test compounds was conducted by the method of Dunham and Miya [Dunham, N. W. and Miya, T. S. 1957. A note on a simple apparatus for detecting neurological deficit in rats and mice. J. Am. Pharm. Assoc. (Baltimore) 46: 208˜209]. In the method, motor abilities of the test animals can be determined by observing whether the test animals can walk without falling from a rotator, thereby determining the value of neurotoxicity of each compound. […] They were pre-trained on the rotarod (Rotarod; Columbus instrument, rota-max, USA) at 6 rpm for 5 min 24 hr prior to the test. The peak time was determined by administration test material's random dose for 0.5, 1, 2, 4 hour. […] The ratio of TD50 to ED50 (TD50/ED50) is called as a protective index, and useful as a parameter for comparison of pharmaceutical efficacy and neurotoxicity.

[3] = system: MES (electrical stimulus) seizure; experiment: animal or person; type: in vivo, male ICR mice; conditions: for Protection % (percentage of activity compared to the vehicle only): mouse, in vivo

Work on `C[C@H](OC(N)=O)[C@@H](O)c1ccccc1F` [Compound 63, 1-(2-fluorophenyl)-(S)-1-hydroxypropyl-(S)-2-carbamate] yielded an inhibition in vivo at 100 mg/kg [1] of 83.3%.

`CC[C@H](OC(N)=O)[C@@H](O)c1ccccc1I` [Compound 67, 1-(2-iodophenyl)-(S)-1-hydroxybutyl-(S)-2-carbamate] gave an inhibition in vivo at 100 mg/kg [1] of 83.3%.

In the case of `C[C@H](OC(N)=O)[C@H](O)c1ccccc1Cl` [Compound 5, 1-(2-chlorophenyl)-(R)-1-hydroxypropyl-(S)-2-carbamate], the “PI(TD50/ED50 in MES)” value [2] is reported as 3.3.

For `CCCNC(=O)O[C@@H](C)[C@@H](O)c1ccccc1Cl` [Compound 16, 1-(2-chlorophenyl)-(S)-1-hydroxypropyl-(S)-2-N-propylcarbamate], the “Protection % (percentage of activity compared to the vehicle only)” value [3] was 200 ^a(25%).

For `CCCNC(=O)O[C@H](C)[C@H](O)c1ccccc1Cl` (racemic) [Compound 30, 1-(2-chlorophenyl)-1-hydroxypropyl-2-propylcarbamate], the “Protection % (percentage of activity compared to the vehicle only)” value [3] was 200 ^a(25%).

`C[C@H](OC(=O)NC1CC1)[C@@H](O)c1ccccc1Cl` [Compound 25, 1-(2-chlorophenyl)-(R)-1-hydroxypropyl-(R)-2-N-cyclopropylcarbamate] gave a responders at 200 mg/kg ([3]; Mus musculus, po, read-out: Protection % (percentage of activity compared to the vehicle only)) of 25%.

`C[C@H](OC(N)=O)[C@@H](O)c1ccc(Cl)cc1Cl` [Compound 36, 1-(2,4-dichlorophenyl)-(S)-1-hydroxypropyl-(S)-2-carbamate] was tested, and the inhibition in vivo at 130 mg/kg [1] was 83.3%.

For `C[C@@H](OC(N)=O)[C@H](O)c1c(Cl)cccc1Cl` [Compound 46, 1-(2,6-dichlorophenyl)-(R)-1-hydroxypropyl-(R)-2-carbamate], the inhibition in vivo at 100 mg/kg [1] was 58.3%.

In the case of `CC[C@H](OC(N)=O)[C@@H](O)c1ccccc1Cl` [Compound 6, 1-(2-chlorophenyl)-(S)-1-hydroxybutyl-(S)-2-carbamate], the inhibition in vivo at 130 mg/kg [1] is reported as 75%.

Work on `CC[C@H](OC(N)=O)[C@@H](O)c1ccc(Cl)cc1Cl` [Compound 39, 1-(2,4-dichlorophenyl)-(S)-1-hydroxybutyl-(S)-2-carbamate] yielded an inhibition in vivo at 130 mg/kg [1] of 66.7%.

`C[C@@H](OC(N)=O)[C@H](O)c1ccccc1Cl` [Compound 2, 1-(2-chlorophenyl)-(R)-1-hydroxypropyl-(R)-2-carbamate] was tested, and the “PI(TD50/ED50 in MES)” value [2] was 7.3 and the inhibition in vivo at 130 mg/kg [1] was 66.7%.

Work on `C[C@H](OC(N)=O)[C@@H](O)c1ccccc1I` [Compound 65, 1-(2-iodophenyl)-(S)-1-hydroxypropyl-(S)-2-carbamate] yielded an ED50 [1] of 19.2 mg/kg.

For `C[C@H](OC(N)=O)[C@@H](O)c1c(Cl)cccc1Cl` [Compound 37, 1-(2,6-dichlorophenyl)-(S)-1-hydroxypropyl-(S)-2-carbamate], the “PI(TD50/ED50 in MES)” value [2] was 5.1 and the inhibition in vivo at 130 mg/kg [1] was 91.7%.

For `C[C@H](OC(N)=O)[C@@H](O)c1ccccc1Cl` [Compound 1, 1-(2-chlorophenyl)-(S)-1-hydroxypropyl-(S)-2-carbamate], the ED50 [1] was 12.9 mg/kg, the “On-set time Mean ± S.E.M.” value ([1]; 5 mg/kg) was 243 ± 7 s and the “On-set time Median” value ([1]; 5 mg/kg) was 250 s. The “Tremor score Mean ± S.E.M.” value ([1]; 5 mg/kg) was 4.8 ± 0.5, the “Tremor score Median” value ([1]; 5 mg/kg) was 5.0 and the “On-set time Mean ± S.E.M.” value ([1]; 10 mg/kg) was 289 ± 19 s. For the same compound, the “On-set time Median” value ([1]; 10 mg/kg) was 265 s, the “Tremor score Mean ± S.E.M.” value ([1]; 10 mg/kg) was 3.6 ± 0.6 and the “Tremor score Median” value ([1]; 10 mg/kg) was 2.5. For the same compound, the “On-set time Mean ± S.E.M.” value ([1]; 20 mg/kg) was 367 ± 21 s, the “On-set time Median” value ([1]; 20 mg/kg) was 375 s and the “Tremor score Mean ± S.E.M.” value ([1]; 20 mg/kg) was 1.8 ± 0.1. The “Tremor score Median” value ([1]; 20 mg/kg) was 1.8.

Work on `CC(C)[C@H](OC(N)=O)[C@@H](O)c1ccccc1Cl` [Compound 9, 1-(2-chlorophenyl)-(S)-1-hydroxy-3-methyl-butyl-(S)-2-carbamate] yielded an inhibition in vivo at 130 mg/kg [1] of 58.3%.

Compound `C[C@@H](OC(N)=O)[C@@H](O)c1ccccc1Cl` [Compound 4, 1-(2-chlorophenyl)-(S)-1-hydroxypropyl-(R)-2-carbamate] has an inhibition in vivo at 100 mg/kg [1] of 66.7%.

Compound `CC(C)[C@H](OC(N)=O)[C@@H](O)c1c(Cl)cccc1Cl` [Compound 42, 1-(2,6-dichlorophenyl)-(S)-1-hydroxy-3-methyl-butyl-(S)-2-carbamate] has an inhibition in vivo at 100 mg/kg [1] of 71.7%.

`C[C@H](OC(N)=O)[C@@H](O)c1cccc(Cl)c1Cl` [Compound 38, 1-(2,3-dichlorophenyl)-(S)-1-hydroxypropyl-(S)-2-carbamate] gave an inhibition in vivo at 100 mg/kg [1] of 55%.

`CC(OC(N)=O)C(O)c1ccccc1Cl` (racemic) [Compound 3, 1-(2-chlorophenyl)-1-hydroxypropyl-2-carbamate] was tested, and the “PI(TD50/ED50 in MES)” value [2] was 12.0 and the inhibition in vivo at 130 mg/kg [1] was 75%.
